{"source": "paper PMC5732813", "about": "“Novel piplartine-containing ruthenium complexes: synthesis, cell growth inhibition, apoptosis induction and ROS production on HCT116 cells” (Oncotarget, 2017)", "key": {"[1]": {"tested_on": "HepG2 (human hepatocellular carcinoma)", "assay": "Cytotoxic activity, alamar blue assay, HepG2", "assay_type": "cell-based", "conditions": "HepG2, IC50 72h", "description": "(§1) HCT116 (human colon carcinoma), HepG2 (human hepatocellular carcinoma), HSC-3 (human oral squamous cell carcinoma), SCC-4 (human oral squamous cell carcinoma), SCC-9 (human oral squamous cell carcinoma), HL-60 (human promyelocytic leukemia), K-562 (human chronic myelogenous leukemia), B16-F10 (murine melanoma), MRC-5 (human lung fibroblast), WT SV40 MEF (wild-type immortalized mouse embryonic fibroblast) and BAD KO SV40 MEF (BAD gene knockout immortalized mouse embryonic fibroblast) cell lines were obtained from the American Type Culture Collection (ATCC, Manassas, VA, USA) and cultured in RPMI-1640 medium (Gibco-BRL, Gaithersburg, MD, USA) with 10% fetal bovine serum (Life, Carlsbad, CA, USA), 2 mM L-glutamine (Vetec Química Fina, Duque de Caxias, RJ, Brazil) and 50 μg/mL gentamycin (Life, Carlsbad, CA, USA). Adherent cells were collected by treatment with 0.25% trypsin EDTA solution (Gibco-BRL, Gaithersburg, MD, USA). All cell lines were cultured in flasks at 37°C in 5% CO2 and sub-cultured every 3-4 days to maintain exponential growth.\n(§2) Cell viability was quantified using the alamar blue assay, according to Ahmed et al.. Cells were inserted in 96-well plates for all experiments (7 x 10^4 cells/mL for adherent cells or 3 x 10^5 cells/mL for suspended cells in 100 μL of medium). […] Negative controls received the vehicle that was used for diluting the compounds tested."}, "[2]": {"tested_on": "SCC-9 (human oral squamous cell carcinoma)", "assay": "Cytotoxic activity, alamar blue assay, SCC-9", "assay_type": "cell-based", "conditions": "SCC9, IC50 72h", "description": "as §1, §2"}, "HCT116 cells [3]": {"tested_on": "HCT116 cells", "assay": "Internucleosomal DNA fragmentation and cell cycle distribution (DNA content, flow cytometry)", "assay_type": "cell-based, human", "description": "Cells were harvested in a permeabilization solution containing 0.1% triton X-100 (Sigma Chemical Co. St Louis, MO, USA), 2 μg/mL propidium iodide (Sigma Chemical Co. St Louis, MO, USA), 0.1% sodium citrate and 100 μg/mL RNAse (Sigma Chemical Co. St Louis, MO, USA) and incubated in the dark for 15 min at room temperature."}, "[4]": {"tested_on": "BAD KO SV40 MEF (BAD gene knockout immortalized mouse embryonic fibroblast)", "assay": "Cytotoxic activity, alamar blue assay, BAD KO SV40 MEF", "assay_type": "cell-based", "conditions": "BAD KO SV40 MEF, 72 h incubation, alamar blue; read-out: IC50", "description": "as §1, §2"}, "HCT116 cells [5]": {"tested_on": "HCT116 cells", "assay": "Gene expression analysis by qPCR array (TaqMan Array Human Molecular Mechanisms of Cancer)", "assay_type": "cell-based", "conditions": "HCT116, 12 h; DOX 1 μM, PL 10 μM, 1 2.5 μM, 2 5 μM; negative control RQ = 1.0", "description": "HCT116 cells were plated in bottles tissue culture (7x10^4 cells/mL). After 12h of incubation with the complexes, total RNA was isolated from the cells using the RNeasy Plus mini kit (Qiagen, Hilden, Germany) according to the manufacturer’s instructions. The RNA was evaluated by fluorimetry (QuBit™, Life Technologies, Camarillo, CA, EUA). RNA reverse transcription was performed using Superscript VILO™ (Invitrogen Corporation, Waltham, MA, USA). A 96-well plate TaqMan® Array Human Molecular Mechanisms of Cancer (ID 4418806, Applied Biosystems™, Foster City, CA, EUA) was used for the gene expression study by qPCR. The reactions were conducted in the ABI ViiA7 (Applied Biosystems™, Foster City, CA, EUA). The cycle conditions comprised 2 min at 50 °C, 20 s at 95 °C, then 40 cycles of 3 s at 95 °C and 30 s at 60 °C. […] The GAPDH, 18S and HPRT1 genes were used for normalization. All experiments were performed in DNase/RNase free conditions."}}, "note": "Where “and” joins values, the source holds several entries; their conditions need not be identical. Identical values can stand only once.", "data": [{"substance": "[Ru(piplartine)(dppb)(bipy)](PF6)2 [Complex 2]", "values": [{"measurement": "more potent than metal-free piplartine", "setting": "[1]", "result": 3, "unit": "fold"}, {"measurement": "more potent than metal-free piplartine", "setting": "[2]", "result": 2, "unit": "fold"}, {"measurement": "DNA content (%) S", "setting": "HCT116 cells [3]", "result": "18.7 ± 1.8% and 15.6 ± 1.8% and 21.2 ± 2.6% and 18.0 ± 1.3%"}, {"measurement": "IC50", "setting": "[4]", "result": 4, "unit": "µM"}, {"measurement": "RQ ABL1", "setting": "HCT116 cells [5]", "result": 0.863}, {"measurement": "RQ AKT1", "setting": "HCT116 cells [5]", "result": 0.642}, {"measurement": "RQ AKT2", "setting": "HCT116 cells [5]", "result": 0.592}, {"measurement": "RQ APC", "setting": "HCT116 cells [5]", "result": 0.576}, {"measurement": "RQ BAX", "setting": "HCT116 cells [5]", "result": 0.739}, {"measurement": "RQ BCAR1", "setting": "HCT116 cells [5]", "result": 0.596}, {"measurement": "RQ BCL2", "setting": "HCT116 cells [5]", "result": "0.8 and 0.748"}, {"measurement": "RQ BCL2L1", "setting": "HCT116 cells [5]", "result": 0.739}, {"measurement": "RQ BCL2L11", "setting": "HCT116 cells [5]", "result": 0.904}, {"measurement": "RQ BID", "setting": "HCT116 cells [5]", "result": 0.671}, {"measurement": "RQ BRAF", "setting": "HCT116 cells [5]", "result": 0.781}, {"measurement": "RQ CASP8", "setting": "HCT116 cells [5]", "result": 0.930}, {"measurement": "RQ CASP9", "setting": "HCT116 cells [5]", "result": 0.828}, {"measurement": "RQ CCND1", "setting": "HCT116 cells [5]", "result": "0.5 and 0.461"}, {"measurement": "RQ CCND3", "setting": "HCT116 cells [5]", "result": 0.723}, {"measurement": "RQ CCNE1", "setting": "HCT116 cells [5]", "result": 0.893}, {"measurement": "RQ CDC42", "setting": "HCT116 cells [5]", "result": 1.411}, {"measurement": "RQ CDH1", "setting": "HCT116 cells [5]", "result": "1.1 and 1.098"}, {"measurement": "RQ CDK2", "setting": "HCT116 cells [5]", "result": 0.693}, {"measurement": "RQ CDK4", "setting": "HCT116 cells [5]", "result": 0.898}, {"measurement": "RQ CDKN1A", "setting": "HCT116 cells [5]", "result": 0.996}, {"measurement": "RQ CDKN1B", "setting": "HCT116 cells [5]", "result": 0.783}, {"measurement": "RQ CDKN2A", "setting": "HCT116 cells [5]", "result": "1.2 and 1.153"}, {"measurement": "RQ CRK", "setting": "HCT116 cells [5]", "result": 0.758}, {"measurement": "RQ CTNNB1", "setting": "HCT116 cells [5]", "result": 0.877}, {"measurement": "RQ CYCS", "setting": "HCT116 cells [5]", "result": "1.0 and 1.043"}, {"measurement": "RQ E2F1", "setting": "HCT116 cells [5]", "result": 0.736}, {"measurement": "RQ EGFR", "setting": "HCT116 cells [5]", "result": "11,276.3 and 11,276.298"}, {"measurement": "RQ ELK1", "setting": "HCT116 cells [5]", "result": 0.628}, {"measurement": "RQ ERBB2", "setting": "HCT116 cells [5]", "result": 1.006}, {"measurement": "RQ FADD", "setting": "HCT116 cells [5]", "result": "74.1 and 74.142"}, {"measurement": "RQ FAS", "setting": "HCT116 cells [5]", "result": 1.037}, {"measurement": "RQ FGF2", "setting": "HCT116 cells [5]", "result": 1.003}, {"measurement": "RQ FYN", "setting": "HCT116 cells [5]", "result": 1.169}, {"measurement": "RQ FZD1", "setting": "HCT116 cells [5]", "result": "0.9 and 0.860"}, {"measurement": "RQ GRB2", "setting": "HCT116 cells [5]", "result": 0.693}, {"measurement": "RQ GSK3B", "setting": "HCT116 cells [5]", "result": 0.738}, {"measurement": "RQ GUSB", "setting": "HCT116 cells [5]", "result": 2.9}, {"measurement": "RQ HRAS", "setting": "HCT116 cells [5]", "result": 0.561}, {"measurement": "RQ IGF1R", "setting": "HCT116 cells [5]", "result": "0.7 and 0.677"}, {"measurement": "RQ ITGA2B", "setting": "HCT116 cells [5]", "result": "0.1 and 0.135"}, {"measurement": "RQ ITGAV", "setting": "HCT116 cells [5]", "result": "1,149.0 and 1,149.015"}, {"measurement": "RQ ITGB1", "setting": "HCT116 cells [5]", "result": 0.579}, {"measurement": "RQ ITGB3", "setting": "HCT116 cells [5]", "result": 1.243}, {"measurement": "RQ JUN", "setting": "HCT116 cells [5]", "result": "2.3 and 2.306"}, {"measurement": "RQ KDR", "setting": "HCT116 cells [5]", "result": "1.4 and 1.408"}, {"measurement": "RQ KRAS", "setting": "HCT116 cells [5]", "result": 0.979}, {"measurement": "RQ MAP2K1", "setting": "HCT116 cells [5]", "result": "2,107.2 and 2,107.239"}, {"measurement": "RQ MAP3K5", "setting": "HCT116 cells [5]", "result": "4.3 and 4.314"}, {"measurement": "RQ MAPK1", "setting": "HCT116 cells [5]", "result": 1.062}, {"measurement": "RQ MAPK3", "setting": "HCT116 cells [5]", "result": "1.9 and 1.853"}, {"measurement": "RQ MAPK8", "setting": "HCT116 cells [5]", "result": 0.623}, {"measurement": "RQ MAPK14", "setting": "HCT116 cells [5]", "result": 1.145}, {"measurement": "RQ MAX", "setting": "HCT116 cells [5]", "result": "0.9 and 0.912"}, {"measurement": "RQ MDM2", "setting": "HCT116 cells [5]", "result": 1.272}, {"measurement": "RQ MYC", "setting": "HCT116 cells [5]", "result": 0.796}, {"measurement": "RQ NFKB1", "setting": "HCT116 cells [5]", "result": 0.699}, {"measurement": "RQ NFKB2", "setting": "HCT116 cells [5]", "result": 1.536}, {"measurement": "RQ NFKBIA", "setting": "HCT116 cells [5]", "result": "0.9 and 0.894"}, {"measurement": "RQ NRAS", "setting": "HCT116 cells [5]", "result": 0.923}, {"measurement": "RQ PIK3CA", "setting": "HCT116 cells [5]", "result": 0.565}, {"measurement": "RQ PIK3R1", "setting": "HCT116 cells [5]", "result": "1.3 and 1.299"}, {"measurement": "RQ PTEN", "setting": "HCT116 cells [5]", "result": "0.8 and 0.776"}, {"measurement": "RQ PTK2", "setting": "HCT116 cells [5]", "result": "2.4 and 2.357"}, {"measurement": "RQ PTK2B", "setting": "HCT116 cells [5]", "result": "1.0 and 1.024"}, {"measurement": "RQ RAC1", "setting": "HCT116 cells [5]", "result": "2.7 and 2.676"}, {"measurement": "RQ RAF1", "setting": "HCT116 cells [5]", "result": "0.9 and 0.909"}, {"measurement": "RQ RB1", "setting": "HCT116 cells [5]", "result": 0.821}, {"measurement": "RQ RELA", "setting": "HCT116 cells [5]", "result": 0.845}, {"measurement": "RQ RHOA", "setting": "HCT116 cells [5]", "result": 1.017}, {"measurement": "RQ SMAD4", "setting": "HCT116 cells [5]", "result": "2.1 and 2.050"}, {"measurement": "RQ SOS1", "setting": "HCT116 cells [5]", "result": "0.2 and 0.188"}, {"measurement": "RQ SPP1", "setting": "HCT116 cells [5]", "result": "10.1 and 10.094"}, {"measurement": "RQ SRC", "setting": "HCT116 cells [5]", "result": 0.801}, {"measurement": "RQ TCF3", "setting": "HCT116 cells [5]", "result": 0.608}, {"measurement": "RQ TGFB1", "setting": "HCT116 cells [5]", "result": 0.868}, {"measurement": "RQ TGFBR1", "setting": "HCT116 cells [5]", "result": 0.781}, {"measurement": "RQ TGFBR2", "setting": "HCT116 cells [5]", "result": "1.1 and 1.085"}, {"measurement": "RQ TP53", "setting": "HCT116 cells [5]", "result": "1.5 and 1.466"}, {"measurement": "RQ VEGFA", "setting": "HCT116 cells [5]", "result": 1.321}]}]}
